Measurements reported in patent US20200188361A1, “USE OF MITOCHONDRIAL ACTIVITY INHIBITORS FOR THE TREATMENT OF POOR PROGNOSIS ACUTE MYELOID LEUKEMIA” (UNIVERSITE DE MONTREAL, priority 2016, published 2020).

Columns and labels:
[1] = tested on: HOX-high AML patient cells; assay: Primary chemical screen of 60 compounds, cell dose-response viability assay (CellTiterGlo, 6 days); type: cell-based, human
Method: (§1) frozen AML mono-nucleated cells were thawed at 37° C. in Iscove's modified Dulbecco's medium (IMDM) containing 20% FBS and DNase I (100 μg/mL).
(§2) All powders were dissolved in DMSO and diluted in culture medium immediately before use. Final DMSO concentration in all conditions was 0.1%. The 60 compounds were purchased from various suppliers including Santa Cruz, Selleckchem, Calbiochem, AdooQ Bioscience, Cayman chemical and Synkinase.
(§3) Patient cells were seeded in 384-well plates at a density of 5,000 cells in 50 μL per well. In the initial screen, compounds were added to seeded cells in serial dilutions (10 dilutions, 1:3, starting from 10 μM or 20 μM), in duplicates. Cells treated with 0.1% DMSO without additional compound were used as negative controls. Viable cell counts per well were evaluated after 6 days of culture using the CellTiterGlo® assay (Promega®) according to the manufacturer's instruction.
(§4) Using high expression of HOXA9 and HOXA10 as a surrogate for the detection of HOX-network-high patient samples, the survival of HOX-high versus HOX-med/low specimens contacted with 60 inhibitors targeting receptor tyrosine kinases (RTK), members of the RAS and PI3K pathways, was assessed (FIG. 2A, Table 4).

[2] = tested on: HOX-med/low AML patient cells; assay: as above; type: cell-based, human; conditions: Homo sapiens, 144 h; primary screen; mean over HOX-med/low patient specimens; 6 days culture; top concentration 10 μM or 20 μM; read-out: MEAN EC50 HOX-med/low
Method: as §1, §2, §3, §4

[3] = tested on: AML patient specimens; assay: Cell dose-response viability assay on AML patient specimens (primary and validation screen); type: cell-based, human; conditions: Homo sapiens; poor prognostic triple-mutated specimens (FIG. 3G); read-out: median EC50 in AML specimens with simultaneous mutations in NPM1, DNMT3A and FLT3-ITD
Method: as §1
as §3, with “instruction. The percent of inhibition was calculated as follows: 100−(100×(mean luminescence(compound)/mean luminescence(DMSO)); where mean-luminescence(compound) corresponds to the average of luminescent signals obtained for the compound-treated cells, and mean-luminescence(DMSO) corresponds to the average of luminescent signals obtained for the control DMSO-treated cells.” for “instruction.”

[4] = tested on: Normal primitive CD34-positive cord blood cells; assay: cells; conditions: Homo sapiens, read-out: EC50 in normal primitive CD34-positive cord blood cells
Method: as §3, with “instruction. The percent of inhibition was calculated as follows: 100−(100×(mean luminescence(compound)/mean luminescence(DMSO)); where mean-luminescence(compound) corresponds to the average of luminescent signals obtained for the compound-treated cells, and mean-luminescence(DMSO) corresponds to the average of luminescent signals obtained for the control DMSO-treated cells.” for “instruction.”

[5] = tested on: OCI-AML3 cells; assay: Dose-response curves in AML cell line (6-day culture assay in 384-well plates); type: cell-based; conditions: FIG. 4E
Method: (§5) FIGS. 5A-5J show the results on experiments assessing the mode of action of Mubritinib for mediating tumor cell death. FIG. 5A: OCI-AML3 leukemic cells were either pre-incubated for 4 hours with 6 mM N-acetyl-cysteine (NAC), a reactive oxygen species (ROS) scavenger, or with vehicle (water) before being treated with 100 nM Mubritinib for 24 h or vehicle (DMSO). […] FIGS. 5C and 5D show the levels of reduced and oxidized levels of glutathione, respectively, in OCI-AML3 treated or not with Mubritinib, as detected by liquid chromatography-mass spectrometry (LC/MS). […] FIG. 5G is a graph depicting dose-response curves upon Mubritinib treatment (6-day culture assay in 384-well plates) of OCI-AML3 and OCI-AML5 cell lines. FIGS. 5H-J are graphs depicting dose-response curves following treatment of OCI-AML3 and OCI-AML5 cell lines with other ETC inhibitors, namely Oligomycin (inhibitor of complex V, FIG. 5H), Rotenone (inhibitor of complex I, FIG. 5I) and Deguelin (inhibitor of complex I, FIG. 5J).
OCI-AML3 cells were maintained in alpha-MEM, 20% FBS whereas breat tumor BT474 cells were maintained in DMEM 10% FBS.
as §3, with “instruction. The percent of inhibition was calculated as follows: 100−(100×(mean luminescence(compound)/mean luminescence(DMSO)); where mean-luminescence(compound) corresponds to the average of luminescent signals obtained for the compound-treated cells, and mean-luminescence(DMSO) corresponds to the average of luminescent signals obtained for the control DMSO-treated cells.” for “instruction.”

[6] = tested on: OCI-AML5 cells; conditions: FIG. 5G, 6-day culture
Method: as §5, with “FIGS. 5H-J are graphs depicting dose-response curves following treatment of OCI-AML3 and OCI-AML5 cell lines with other ETC inhibitors, namely Oligomycin (inhibitor of complex V, FIG. 5H), Rotenone (inhibitor of complex I, FIG. 5I) and Deguelin (inhibitor of complex I, FIG. 5J).” left out
Patient cells were seeded in 384-well plates at a density of 5,000 cells in 50 μL per well. […] Viable cell counts per well were evaluated after 6 days of culture using the CellTiterGlo® assay (Promega®) according to the manufacturer's instruction. The percent of inhibition was calculated as follows: 100−(100×(mean luminescence(compound)/mean luminescence(DMSO)); where mean-luminescence(compound) corresponds to the average of luminescent signals obtained for the compound-treated cells, and mean-luminescence(DMSO) corresponds to the average of luminescent signals obtained for the control DMSO-treated cells.

[7] = tested on: OCI-AML3 cells
Method: as §5
(§6) Dead cells were stained using Propidium iodide at a final concentration of 1 μg/mL.

[8] = tested on: OCI-AML3 leukemic cells; conditions: 500 nM, 24 h (FIG. 5B)
Method: as §5, §6

[9] = tested on: OCI-AML3 leukemic cells; conditions: acute injection, 1 μM (FIG. 5E)
Method: Oxygen consumption rates and extracellular acidification rates were measured using a 96-well Seahorse Bioanalyzer XFe96® or XFe24® according to the manufacturer's instructions (Agilent Technologies). Seahorse XF Base medium was supplemented with 1 mM pyruvate, 2 mM glutamine and 10 mM glucose in the case of Mitochondrial Stress Test and with 1 mM pyruvate, 2 mM glutamine and no glucose in the case of Glycolytic Stress Test. The pH of the Seahorse media was then adjusted at 7.4 prior to assay. In brief, leukemic cells were seeded into Seahorse 96-well (or 24-well) plates pre-coated for 3 h with poly-lysine (Sigma-Aldrich, P4707) at a density of 75,000 cells/well in 100 μL (or 150,000 cells/well, in 150 μL) of temperature/CO2 pre-adjusted Seahorse media per well. The Seahorse plates were then centrifuged at 1400 rpm for 5 min. An additional 75 μL (or 375 μL) of Seahorse media was then added and cells were eventually analyzed following the manufacturer's instructions by adding compounds in a constant volume of 25 μL (or 75 μL). Compounds were acutely injected in cells at a final concentration of 1 μM for Mubritinib, 1 μM for Oligomycin, 0.5 μM for FCCP, 0.5 μM for Rotenone/Antimycin A, Glucose 10 mM and 2-Deoxy-Glucose 50 mM.

[10] = tested on: mitochondrial electron transfer chain (ETC) complex I; conditions: cell free assay (FIG. 5F)
Method: as §5

[11] = tested on: Complex I enzyme activity in OCI-AML3 cells; conditions: FIG. 8
Method: Complex I activity is determined by following the oxidation of NADH to NAD+ and the simultaneous reduction of a dye which leads to increased absorbance at OD=450 nm.

[12] = target: human epidermal growth factor receptor 2 (ERBB2/HER2) (Homo sapiens, UniProt P04626); conditions: described in Nagasawa et al.; cited from earlier work
Sequence of human epidermal growth factor receptor 2 (ERBB2/HER2) (P04626 23-1255): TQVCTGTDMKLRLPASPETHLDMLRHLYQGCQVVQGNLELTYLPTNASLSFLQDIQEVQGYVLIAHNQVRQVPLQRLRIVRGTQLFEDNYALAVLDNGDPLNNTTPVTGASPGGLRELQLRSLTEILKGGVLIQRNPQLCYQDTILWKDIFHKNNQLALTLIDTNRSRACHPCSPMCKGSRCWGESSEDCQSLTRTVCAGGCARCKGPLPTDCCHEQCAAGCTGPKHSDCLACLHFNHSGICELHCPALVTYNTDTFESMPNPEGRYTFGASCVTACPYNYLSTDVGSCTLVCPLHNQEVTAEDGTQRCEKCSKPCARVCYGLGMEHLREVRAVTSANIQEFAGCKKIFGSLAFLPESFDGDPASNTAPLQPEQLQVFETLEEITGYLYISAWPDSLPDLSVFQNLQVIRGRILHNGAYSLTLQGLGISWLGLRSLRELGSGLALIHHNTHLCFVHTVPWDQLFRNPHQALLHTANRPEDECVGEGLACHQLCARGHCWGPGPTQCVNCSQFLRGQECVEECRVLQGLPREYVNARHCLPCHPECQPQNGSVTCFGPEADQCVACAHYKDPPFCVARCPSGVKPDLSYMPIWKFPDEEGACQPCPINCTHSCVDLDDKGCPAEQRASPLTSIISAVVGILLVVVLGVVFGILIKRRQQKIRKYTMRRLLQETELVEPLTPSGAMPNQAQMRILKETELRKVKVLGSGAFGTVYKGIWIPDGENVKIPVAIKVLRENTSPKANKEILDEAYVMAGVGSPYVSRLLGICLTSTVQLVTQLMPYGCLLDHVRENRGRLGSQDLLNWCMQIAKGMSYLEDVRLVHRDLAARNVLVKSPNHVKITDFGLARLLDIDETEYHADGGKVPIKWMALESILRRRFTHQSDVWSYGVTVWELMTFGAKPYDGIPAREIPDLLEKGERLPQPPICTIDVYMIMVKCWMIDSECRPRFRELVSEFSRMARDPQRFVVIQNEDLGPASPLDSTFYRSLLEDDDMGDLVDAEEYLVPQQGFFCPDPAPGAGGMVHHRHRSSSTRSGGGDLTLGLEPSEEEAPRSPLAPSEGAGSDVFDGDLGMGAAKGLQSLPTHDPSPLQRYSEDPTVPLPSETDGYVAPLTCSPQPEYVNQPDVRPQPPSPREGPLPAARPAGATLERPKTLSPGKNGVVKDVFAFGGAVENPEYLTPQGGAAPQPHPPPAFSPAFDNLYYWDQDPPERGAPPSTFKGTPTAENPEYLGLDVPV

## FC(F)(F)c1ccc(/C=C/c2nc(COc3ccc(CCCCn4ccnn4)cc3)co2)cc1 [Mubritinib, 1-(4-{4-[(2-{(E)-2-[4-(trifluoromethyl)phenyl]ethenyl}-1,3-oxazol-4-yl)methoxy]phenyl}butyl)-1H-1,2,3-triazole]
[1]; Homo sapiens, 144 h, primary screen, mean over HOX-high patient specimens, 6 days culture, top concentration 10 μM or 20 μM, read-out: MEAN EC50 HOX-high
  EC50: 315 nM
[1]; primary screen (FIG. 2B)
  difference in sensitivity of HOX-high versus HOX-med/low patient cells: significantly more sensitive
[1]; ratio of mean EC50 HOX-high to mean EC50 HOX-med/low
  FOLD CHANGE High/Med-low: 0.2
[2]
  EC50: 1380 nM
[3]
  EC50: 96 nM
[4]
  EC50: > 375 nM
[5]
  sensitivity of OCI-AML3 cells (dose response curves): sensitive
[6]
  sensitivity of OCI-AML5 cells to compound-induced cell death: resistant
[7]; 4 hours pre-incubation with 6 mM NAC, then 100 nM Mubritinib for 24 h (FIG. 5A)
  Mubritinib-induced apoptosis in the presence of the ROS scavenger N-acetyl-cysteine (NAC): significantly decreased
[7]; 24 hours, 100 nM or 10 μM (FIG. 4C)
  Annexin V staining (marker of apoptosis): increase in Annexin V staining
[7]; 27 hours of treatment, compared to DMSO (FIG. 4B)
  number of dead (PI-positive) cells: increase in the number of dead (PI-positive) cells
[7]; four days of treatment, different concentrations, dose-dependent (FIG. 4A)
  live cell counts (Propidium Iodide-negative cells): reduction of live cell counts
[8]
  level of ROS activity (hydroxyl, peroxyl) by DCFDA: increased
[9]
  oxygen consumption rate: impaired oxygen consumption rate
[10]
  ETC Complex I activity: inhibitory effect on ETC Complex I activity
[11]
  inhibitory effect on complex I in diaphorase-type (NADH oxidation) assay: NADH-independent
[12]
  inhibition of ERBB2/HER2: potent inhibitor
